Experimental findings from paper PMC6120666 (The EMBO Journal, 2018) are described below.

Common to all, as to assay: Drug affinity chromatography with c-ponatinib and LC-MS/MS (ponatinib interactome)
Common to all, as to type: binding

Assay [1] concerns the target T1, proteins of U2OS cell lysate (Homo sapiens, UniProt Q9P2E9).
T1 construct: Proteins enriched by c-ponatinib from U2OS cell lysate; endogenous in cells; host or cells: U2OS cell lysate
Particulars: RRBP1, Ribosome-binding protein 1. The method, boiled down:
(§1)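 U2OS cell lysate in NP-40 lysis buffer (2 mg protein per pulldown) was incubated with amine-derivatized NHS beads for 2 h at 4 °C. Bound proteins were washed, eluted with 100 mM formic acid, reduced, alkylated and trypsin-digested, then identified by nano-UPLC–MS/MS on Orbitrap instruments with a 60 min gradient.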

Assay [2] deals with T2, proteins of U2OS cell lysate (Homo sapiens, UniProt Q09028).
T2 construct: Proteins enriched by c-ponatinib from U2OS cell lysate; endogenous in cells; host or cells: U2OS cell lysate
As to conditions: RBBP4;RBBP7, Histone-binding protein RBBP4. Put shortly: as §1

Assay [3] addresses T3, proteins of U2OS cell lysate (Homo sapiens, UniProt Q13546).
T3 construct: Proteins enriched by c-ponatinib from U2OS cell lysate; endogenous in cells; host or cells: U2OS cell lysate
As to conditions: RIPK1, Receptor-interacting serine/threonine-protein kinase 1. The method, boiled down: as §1

For assay [4], the target named is T4, proteins of U2OS cell lysate (Homo sapiens, UniProt Q16854).
T4 construct: Proteins enriched by c-ponatinib from U2OS cell lysate; endogenous in cells; host or cells: U2OS cell lysate
As to conditions: DGUOK, Deoxyguanosine kinase, mitochondrial. The method, boiled down: as §1

Assay [5] has as its target T5, proteins of U2OS cell lysate (Homo sapiens, UniProt P35579).
T5 construct: Proteins enriched by c-ponatinib from U2OS cell lysate; endogenous in cells; host or cells: U2OS cell lysate
Particulars: MYH9, Myosin-9. Put shortly: as §1

Assay [6] concerns the target T6, proteins of U2OS cell lysate (Homo sapiens, UniProt P55036).
T6 construct: Proteins enriched by c-ponatinib from U2OS cell lysate; endogenous in cells; host or cells: U2OS cell lysate
Particulars: PSMD4, 26S proteasome non-ATPase regulatory subunit 4. Put shortly:
as §1

In assay [7] the target is T7, proteins of U2OS cell lysate (Homo sapiens, UniProt P04792).
T7 construct: Proteins enriched by c-ponatinib from U2OS cell lysate; endogenous in cells; host or cells: U2OS cell lysate
Particulars: HSPB1, Heat shock protein beta-1. The method, boiled down:
as §1

In assay [8] the target is T8, proteins of U2OS cell lysate (Homo sapiens, UniProt P09669).
T8 construct: Proteins enriched by c-ponatinib from U2OS cell lysate; endogenous in cells; host or cells: U2OS cell lysate
As to conditions: COX6C, Cytochrome c oxidase subunit 6C. The method, boiled down:
as §1

Assay [9] has as its target T9, proteins of U2OS cell lysate (Homo sapiens, UniProt P78371).
T9 construct: Proteins enriched by c-ponatinib from U2OS cell lysate; endogenous in cells; host or cells: U2OS cell lysate
As to conditions: CCT2, T-complex protein 1 subunit beta. Put shortly: as §1

Assay [10] concerns the target T10, proteins of U2OS cell lysate (Homo sapiens, UniProt Q02218).
T10 construct: Proteins enriched by c-ponatinib from U2OS cell lysate; endogenous in cells; host or cells: U2OS cell lysate
As to conditions: OGDH;OGDHL, 2-oxoglutarate dehydrogenase, mitochondrial. Put shortly: as §1

Assay [11] concerns the target T11, proteins of U2OS cell lysate (Homo sapiens, UniProt Q14165).
T11 construct: Proteins enriched by c-ponatinib from U2OS cell lysate; endogenous in cells; host or cells: U2OS cell lysate
Particulars: MLEC, Malectin. Put shortly: as §1

The target of assay [12] is T12, proteins of U2OS cell lysate (Homo sapiens, UniProt P68363).
T12 construct: Proteins enriched by c-ponatinib from U2OS cell lysate; endogenous in cells; host or cells: U2OS cell lysate
As to conditions: TUBA1B;TUBA1A, Tubulin alpha-1B chain. Put shortly: as §1

The target in assay [13] is T13, proteins of U2OS cell lysate (Homo sapiens, UniProt P51610).
T13 construct: Proteins enriched by c-ponatinib from U2OS cell lysate; endogenous in cells; host or cells: U2OS cell lysate
As to conditions: HCFC1, Host cell factor 1. The method, boiled down: as §1

Assay [14] deals with T14, proteins of U2OS cell lysate (Homo sapiens, UniProt Q14204).
T14 construct: Proteins enriched by c-ponatinib from U2OS cell lysate; endogenous in cells; host or cells: U2OS cell lysate
Particulars: DYNC1H1, Cytoplasmic dynein 1 heavy chain 1. Put shortly: as §1

Assay [15] deals with T15, proteins of U2OS cell lysate (Homo sapiens, UniProt P49336).
T15 construct: Proteins enriched by c-ponatinib from U2OS cell lysate; endogenous in cells; host or cells: U2OS cell lysate
Particulars: CDK8, Cyclin-dependent kinase 8. The method, boiled down:
as §1

Assay [16] deals with T16, proteins of U2OS cell lysate (Homo sapiens, UniProt P51665).
T16 construct: Proteins enriched by c-ponatinib from U2OS cell lysate; endogenous in cells; host or cells: U2OS cell lysate
As to conditions: PSMD7, 26S proteasome non-ATPase regulatory subunit 7. Put shortly: as §1

Assay [17] has as its target T17, proteins of U2OS cell lysate (Homo sapiens, UniProt Q6PJG6).
T17 construct: Proteins enriched by c-ponatinib from U2OS cell lysate; endogenous in cells; host or cells: U2OS cell lysate
As to conditions: BRAT1, BRCA1-associated ATM activator 1. Put shortly:
as §1

In assay [18] the target is T18, proteins of U2OS cell lysate (Homo sapiens, UniProt P35998).
T18 construct: Proteins enriched by c-ponatinib from U2OS cell lysate; endogenous in cells; host or cells: U2OS cell lysate
Particulars: PSMC2, 26S protease regulatory subunit 7. The method, boiled down: as §1

Assay [19] deals with T19, proteins of U2OS cell lysate (Homo sapiens, UniProt P62266).
T19 construct: Proteins enriched by c-ponatinib from U2OS cell lysate; endogenous in cells; host or cells: U2OS cell lysate
Particulars: captured protein RPS23, Rank 181. The method, boiled down:
as §1

T11 sequence (Q14165 29-292): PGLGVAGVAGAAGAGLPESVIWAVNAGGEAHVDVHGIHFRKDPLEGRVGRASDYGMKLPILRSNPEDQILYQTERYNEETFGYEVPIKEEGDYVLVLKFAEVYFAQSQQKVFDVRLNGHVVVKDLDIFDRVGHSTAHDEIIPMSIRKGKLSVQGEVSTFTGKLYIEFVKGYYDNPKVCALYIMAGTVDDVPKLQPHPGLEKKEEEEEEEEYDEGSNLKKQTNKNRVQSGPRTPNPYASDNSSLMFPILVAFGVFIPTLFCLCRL
T5 sequence (P35579 whole entry): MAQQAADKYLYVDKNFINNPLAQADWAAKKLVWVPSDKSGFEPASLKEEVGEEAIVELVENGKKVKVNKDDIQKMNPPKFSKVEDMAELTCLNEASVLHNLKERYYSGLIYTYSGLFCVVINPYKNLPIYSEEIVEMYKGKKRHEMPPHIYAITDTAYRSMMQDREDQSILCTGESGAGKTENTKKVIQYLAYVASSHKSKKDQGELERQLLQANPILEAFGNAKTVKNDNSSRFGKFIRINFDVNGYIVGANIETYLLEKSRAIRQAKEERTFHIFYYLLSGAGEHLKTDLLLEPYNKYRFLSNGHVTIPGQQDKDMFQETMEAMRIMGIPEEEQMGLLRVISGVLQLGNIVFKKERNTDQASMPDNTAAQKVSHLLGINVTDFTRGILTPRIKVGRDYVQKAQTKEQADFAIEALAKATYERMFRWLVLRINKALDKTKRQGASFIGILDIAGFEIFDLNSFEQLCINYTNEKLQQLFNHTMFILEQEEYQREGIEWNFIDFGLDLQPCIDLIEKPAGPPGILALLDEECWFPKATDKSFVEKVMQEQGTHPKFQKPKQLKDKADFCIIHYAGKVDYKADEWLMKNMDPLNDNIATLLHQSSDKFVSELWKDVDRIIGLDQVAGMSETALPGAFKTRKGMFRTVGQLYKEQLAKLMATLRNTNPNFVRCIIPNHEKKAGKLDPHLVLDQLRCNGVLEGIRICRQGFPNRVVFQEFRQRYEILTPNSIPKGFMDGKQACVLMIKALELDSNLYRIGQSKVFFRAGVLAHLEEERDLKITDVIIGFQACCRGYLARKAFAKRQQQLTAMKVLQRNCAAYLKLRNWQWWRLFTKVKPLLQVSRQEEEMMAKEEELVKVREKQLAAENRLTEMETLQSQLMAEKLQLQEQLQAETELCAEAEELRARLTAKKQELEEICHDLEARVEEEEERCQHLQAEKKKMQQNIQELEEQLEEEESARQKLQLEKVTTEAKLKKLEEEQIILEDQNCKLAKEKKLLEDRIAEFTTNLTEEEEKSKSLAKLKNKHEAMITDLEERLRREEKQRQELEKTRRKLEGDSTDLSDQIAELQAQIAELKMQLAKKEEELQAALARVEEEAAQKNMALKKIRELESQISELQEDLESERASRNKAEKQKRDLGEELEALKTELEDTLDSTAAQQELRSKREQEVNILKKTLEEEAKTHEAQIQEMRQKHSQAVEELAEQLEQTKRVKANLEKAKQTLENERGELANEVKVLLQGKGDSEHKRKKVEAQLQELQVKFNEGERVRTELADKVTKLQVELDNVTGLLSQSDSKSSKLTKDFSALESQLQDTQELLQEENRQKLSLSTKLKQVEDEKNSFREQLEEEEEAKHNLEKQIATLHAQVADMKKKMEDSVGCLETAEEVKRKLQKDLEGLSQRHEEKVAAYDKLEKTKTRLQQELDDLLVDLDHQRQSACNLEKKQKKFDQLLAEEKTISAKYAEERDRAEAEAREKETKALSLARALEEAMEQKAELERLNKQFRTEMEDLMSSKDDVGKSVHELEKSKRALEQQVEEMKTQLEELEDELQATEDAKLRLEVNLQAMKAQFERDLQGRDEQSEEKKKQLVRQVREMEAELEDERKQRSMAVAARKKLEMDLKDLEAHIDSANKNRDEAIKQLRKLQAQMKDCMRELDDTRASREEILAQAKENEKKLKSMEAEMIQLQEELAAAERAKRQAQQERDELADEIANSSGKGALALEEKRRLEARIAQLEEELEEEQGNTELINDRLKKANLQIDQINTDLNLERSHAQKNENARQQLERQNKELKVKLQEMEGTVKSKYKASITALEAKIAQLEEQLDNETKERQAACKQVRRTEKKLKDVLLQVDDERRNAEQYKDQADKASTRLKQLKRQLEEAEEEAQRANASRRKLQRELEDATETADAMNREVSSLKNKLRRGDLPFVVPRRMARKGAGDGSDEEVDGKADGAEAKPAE
T1 sequence (Q9P2E9 whole entry): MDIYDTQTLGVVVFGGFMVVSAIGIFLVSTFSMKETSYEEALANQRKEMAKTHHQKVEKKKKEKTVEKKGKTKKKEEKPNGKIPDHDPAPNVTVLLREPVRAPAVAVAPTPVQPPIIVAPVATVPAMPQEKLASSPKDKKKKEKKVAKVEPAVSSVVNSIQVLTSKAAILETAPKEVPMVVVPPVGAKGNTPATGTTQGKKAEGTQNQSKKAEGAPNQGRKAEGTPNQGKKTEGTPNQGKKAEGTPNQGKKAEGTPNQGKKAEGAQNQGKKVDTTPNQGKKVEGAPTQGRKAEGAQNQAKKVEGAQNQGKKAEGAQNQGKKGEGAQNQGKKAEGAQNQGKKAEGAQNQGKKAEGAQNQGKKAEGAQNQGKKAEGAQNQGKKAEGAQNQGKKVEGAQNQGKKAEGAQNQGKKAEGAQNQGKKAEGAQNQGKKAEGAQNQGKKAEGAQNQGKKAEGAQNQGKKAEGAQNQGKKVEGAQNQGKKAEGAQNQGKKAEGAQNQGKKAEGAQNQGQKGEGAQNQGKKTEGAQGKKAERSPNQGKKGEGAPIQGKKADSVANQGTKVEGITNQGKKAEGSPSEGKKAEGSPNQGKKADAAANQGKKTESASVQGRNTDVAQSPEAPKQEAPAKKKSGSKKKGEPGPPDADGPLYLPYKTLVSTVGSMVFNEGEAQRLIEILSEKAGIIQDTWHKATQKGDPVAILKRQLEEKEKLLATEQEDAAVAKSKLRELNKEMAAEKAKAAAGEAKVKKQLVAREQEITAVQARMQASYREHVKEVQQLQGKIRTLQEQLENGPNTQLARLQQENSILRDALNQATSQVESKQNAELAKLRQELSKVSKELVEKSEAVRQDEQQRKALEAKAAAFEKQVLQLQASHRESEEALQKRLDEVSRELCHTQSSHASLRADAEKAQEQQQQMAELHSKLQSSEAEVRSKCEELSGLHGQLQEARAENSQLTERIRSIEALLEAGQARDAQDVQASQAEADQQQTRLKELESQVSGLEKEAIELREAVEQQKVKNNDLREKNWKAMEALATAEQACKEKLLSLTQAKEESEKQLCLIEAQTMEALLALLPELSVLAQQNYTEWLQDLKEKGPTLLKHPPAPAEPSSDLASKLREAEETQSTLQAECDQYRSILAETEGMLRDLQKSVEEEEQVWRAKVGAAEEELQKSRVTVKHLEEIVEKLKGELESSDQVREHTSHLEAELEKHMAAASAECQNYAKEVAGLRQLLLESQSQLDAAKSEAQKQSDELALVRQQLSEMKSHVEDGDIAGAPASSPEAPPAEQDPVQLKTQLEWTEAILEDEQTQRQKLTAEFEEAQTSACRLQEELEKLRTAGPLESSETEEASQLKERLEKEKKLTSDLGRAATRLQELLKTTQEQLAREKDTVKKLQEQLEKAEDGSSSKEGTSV
T3 sequence (Q13546 whole entry): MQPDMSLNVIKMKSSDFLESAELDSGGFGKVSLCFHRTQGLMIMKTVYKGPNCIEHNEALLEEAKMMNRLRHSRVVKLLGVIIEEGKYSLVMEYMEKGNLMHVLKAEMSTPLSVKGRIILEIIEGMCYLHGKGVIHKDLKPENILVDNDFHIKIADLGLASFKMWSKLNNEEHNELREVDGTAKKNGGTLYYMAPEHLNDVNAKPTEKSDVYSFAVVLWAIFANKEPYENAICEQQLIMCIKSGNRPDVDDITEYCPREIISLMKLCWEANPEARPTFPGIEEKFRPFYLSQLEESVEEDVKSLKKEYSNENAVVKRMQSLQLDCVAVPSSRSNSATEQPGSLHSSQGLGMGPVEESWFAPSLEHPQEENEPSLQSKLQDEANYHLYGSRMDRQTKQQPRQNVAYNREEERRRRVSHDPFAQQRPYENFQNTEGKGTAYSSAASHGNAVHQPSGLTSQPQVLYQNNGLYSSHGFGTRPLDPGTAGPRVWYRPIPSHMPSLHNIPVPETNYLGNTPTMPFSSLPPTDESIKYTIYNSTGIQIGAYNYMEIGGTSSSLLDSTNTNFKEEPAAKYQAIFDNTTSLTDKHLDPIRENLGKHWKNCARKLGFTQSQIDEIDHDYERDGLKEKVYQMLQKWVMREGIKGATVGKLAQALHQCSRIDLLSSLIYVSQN
T4 sequence (Q16854 40-277): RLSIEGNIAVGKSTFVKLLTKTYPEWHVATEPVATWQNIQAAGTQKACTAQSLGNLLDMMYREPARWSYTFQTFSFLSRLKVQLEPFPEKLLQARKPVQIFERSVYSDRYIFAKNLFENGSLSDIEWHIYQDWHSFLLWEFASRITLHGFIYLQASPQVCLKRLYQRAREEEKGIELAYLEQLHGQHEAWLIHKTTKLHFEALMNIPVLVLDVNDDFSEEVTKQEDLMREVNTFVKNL
T7 sequence (P04792 whole entry): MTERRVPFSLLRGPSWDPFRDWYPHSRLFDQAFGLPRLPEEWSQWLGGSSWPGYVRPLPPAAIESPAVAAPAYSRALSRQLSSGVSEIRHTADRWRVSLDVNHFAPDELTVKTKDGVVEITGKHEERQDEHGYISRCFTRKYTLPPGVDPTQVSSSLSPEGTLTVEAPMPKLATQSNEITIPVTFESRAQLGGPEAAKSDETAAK
T8 sequence (P09669 whole entry): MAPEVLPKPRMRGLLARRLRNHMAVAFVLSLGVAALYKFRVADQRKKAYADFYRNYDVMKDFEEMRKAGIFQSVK

For `Cc1ccc(C(=O)Nc2ccc(CN3CCN(C)CC3)c(C(F)(F)F)c2)cc1C#Cc1cnc2cccnn12` [PON], the “Average LFQ PON_WT” value in [1] worked out at 20.1458; in assay [2], 21.1647; in assay [3], 25.0833; in assay [4], 23.2666; in assay [5], 25.6681; in assay [6], 21.0725. In addition, the “Average LFQ PON_WT” value in [7] came to 25.081; in assay [8], 20.8234; in [9] it was 24.048; in assay [10], 22.0277; in assay [11], 19.5713; in assay [12], 27.3228. Moreover, the “Average LFQ PON_WT” value in assay [13] was determined as 21.0295; in assay [14], 24.2612; in assay [15], 23.7078; in [16], 21.0889; in assay [17] it was 19.9568; in assay [18], 21.2631.

As to `Cc1ccc(C(=O)Nc2ccc(CN3CCN(CCCN)CC3)c(C(F)(F)F)c2)cc1C#Cc1cnc2cccnn12` [c-ponatinib, reference compound], the “Average LFQ intensity” value in assay [19] came to 22.1736.
